In ChEMBL document CHEMBL4052829, “Identification of a Novel Hybridization from Isosorbide 5-Mononitrate and Bardoxolone Methyl with Dual Activities of Pulmonary Vasodilation and Vascular Remodeling Inhibition on Pulmonary Arterial Hypertension Rats” (J Med Chem, 2018):
The source made the active and inactive calls. No cut-off for these calls is given here.

What was measured:
Rattus norvegicus [1] = test: Inhibition of vascular remodeling in MCT-induced Sprague-Dawley rat pulmonary arterial hypertension model assessed as decrease in MCT-induced perivascular fibrosis at 3 ug/kg, inhaled daily for 28 days by masson's trichrome staining-based assay; type: functional
[2] = Drug uptake in Sprague-Dawley rat lung at 1 mg/ml administered in trachea after 60 mins by LC-MS/MS analysis; type: ADME, tissue-based; details: inhaled or intranasal, read-out: Drug uptake
Lung [3] = test: Drug metabolism in Sprague-Dawley rat lung assessed as formation of CDDO-Me at 1 mg/ml administered in trachea after 90 mins by LC-MS/MS analysis; type: ADME, tissue-based; details: in vivo, inhaled_or_intranasal, 1.5 h
Lung [4] = test: Drug metabolism in Sprague-Dawley rat lung assessed as formation of CDDO-Me at 1 mg/ml administered in trachea after 12 hrs by LC-MS/MS analysis; type: ADME, tissue-based; details: in vivo, inhaled_or_intranasal
Plasma [5] = test: Drug metabolism in Sprague-Dawley rat plasma assessed as formation of CDDO-Me at 1 mg/ml administered in trachea after 15 to 720 mins by LC-MS/MS analysis; type: ADME, cell-free; details: inhaled_or_intranasal
[6] = target: T1, Nuclear factor erythroid 2-related factor 2 (Rattus norvegicus) (UniProt O54968); test: Induction of Nrf2 translocation to nucleus of rat pulmonary artery endothelial cells at 1 uM after 24 hrs by immunofluorescence assay
T1 sequence (whole entry): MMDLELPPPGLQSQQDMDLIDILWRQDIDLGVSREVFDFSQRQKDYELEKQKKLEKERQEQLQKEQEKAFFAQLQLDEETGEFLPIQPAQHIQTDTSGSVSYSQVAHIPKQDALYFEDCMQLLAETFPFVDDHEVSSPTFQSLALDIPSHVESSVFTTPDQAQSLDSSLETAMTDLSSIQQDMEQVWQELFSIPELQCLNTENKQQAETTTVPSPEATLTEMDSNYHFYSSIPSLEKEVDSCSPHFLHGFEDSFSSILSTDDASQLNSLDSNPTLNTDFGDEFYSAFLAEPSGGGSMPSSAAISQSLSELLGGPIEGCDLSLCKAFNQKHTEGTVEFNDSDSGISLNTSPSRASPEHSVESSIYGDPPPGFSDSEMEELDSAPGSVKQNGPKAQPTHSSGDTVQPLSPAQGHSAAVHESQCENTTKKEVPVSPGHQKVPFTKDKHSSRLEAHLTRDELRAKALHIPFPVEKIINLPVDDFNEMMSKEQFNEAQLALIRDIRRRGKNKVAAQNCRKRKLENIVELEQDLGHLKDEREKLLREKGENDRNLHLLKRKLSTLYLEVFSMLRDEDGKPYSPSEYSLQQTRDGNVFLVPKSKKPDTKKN

Rattus norvegicus [7] = test: Pulmonary vasodilatory effect in MCT-induced Sprague-Dawley rat pulmonary arterial hypertension model assessed as mean pulmonary artery pressure at 3 ug/kg, inhaled daily for 28 days by polygraph method (reference value: 30.63 +/- 1.16 mmHg); type: functional
Rattus norvegicus [8] = test: Pulmonary vasodilatory effect in MCT-induced Sprague-Dawley rat pulmonary arterial hypertension model assessed as right ventricular systolic pressure at 3 ug/kg, inhaled daily for 28 days by polygraph method (reference value: 56.09 +/- 3.24 mmHg); type: functional
Rattus norvegicus [9] = test: Pulmonary vasodilatory effect in MCT-induced Sprague-Dawley rat pulmonary arterial hypertension model assessed as weight ratio of right ventricle to left ventricle and septum at 3 ug/kg, inhaled daily for 28 days (reference value: 0.4796 +/- 0.030); type: functional
Rattus norvegicus [10] = test: Pulmonary vasodilatory effect in MCT-induced Sprague-Dawley rat pulmonary arterial hypertension model assessed as reversal of MCT-induced nitric oxide reduction in plasma at 3 ug/kg, inhaled daily for 28 days by Griess assay; type: functional
Rattus norvegicus [11] = test: Pulmonary vasodilatory effect in MCT-induced Sprague-Dawley rat pulmonary arterial hypertension model assessed as reversal of MCT-induced ET-1 elevation in plasma at 3 ug/kg, inhaled daily for 28 days by ELISA; type: functional
Rattus norvegicus [12] = test: Inhibition of vascular remodeling in MCT-induced Sprague-Dawley rat pulmonary arterial hypertension model assessed as reduction of MCT-induced medial thickness of pulmonary artery at 3 ug/kg, inhaled daily for 28 days by hematoxylin and eosin staining-based assay; type: functional
Rattus norvegicus [13] = test: Inhibition of vascular remodeling in MCT-induced Sprague-Dawley rat pulmonary arterial hypertension model assessed as reduction of MCT-induced pulmonary vascular muscularization by measuring downregulation of alpha-SMA levels at 3 ug/kg, inhaled daily for 28 days by immunohistochemical method; type: functional
Rattus norvegicus [14] = test: Inhibition of vascular remodeling in MCT-induced Sprague-Dawley rat pulmonary arterial hypertension model assessed as downregulation of MCT-induced up-expression of alpha-SMA at 3 ug/kg, inhaled daily for 28 days by Western blot method; type: functional
Rattus norvegicus [15] = test: Inhibition of vascular remodeling in MCT-induced Sprague-Dawley rat pulmonary arterial hypertension model assessed as decrease in MCT-induced TGF-beta expression in lung at 3 ug/kg, inhaled daily for 28 days by Western blot method; type: functional
Rattus norvegicus [16] = test: Inhibition of vascular remodeling in MCT-induced Sprague-Dawley rat pulmonary arterial hypertension model assessed as decrease in MCT-induced collagen-1 expression in lung at 3 ug/kg, inhaled daily for 28 days by Western blot method; type: functional
Rattus norvegicus [17] = test: Inhibition of vascular remodeling in MCT-induced Sprague-Dawley rat pulmonary arterial hypertension model assessed as decrease in MCT-induced increment of PCNA positive cells in lung at 3 ug/kg, inhaled daily for 28 days by immunohistochemical method; type: functional
Rattus norvegicus [18] = test: Inhibition of vascular remodeling in MCT-induced Sprague-Dawley rat pulmonary arterial hypertension model assessed as decrease in MCT-induced macrophage infiltration in perivascular tissue at 3 ug/kg, inhaled daily for 28 days by immunohistochemical method; type: functional
Rattus norvegicus [19] = test: Inhibition of oxidative response in lung of MCT-induced Sprague-Dawley rat pulmonary arterial hypertension model assessed as decrease in ratio of NOX4 positive cells and NOX4 expression at 3 ug/kg, inhaled daily for 28 days by immunohistochemical method; type: functional
Rattus norvegicus [20] = test: Inhibition of oxidative response in lung of MCT-induced Sprague-Dawley rat pulmonary arterial hypertension model assessed as decrease in ratio of NOX4 positive cells and NOX4 expression at 3 ug/kg, inhaled daily for 28 days by Western blot method; type: functional
Rattus norvegicus [21] = test: Inhibition of cardiomyocyte hypertrophy in MCT-induced Sprague-Dawley rat pulmonary arterial hypertension model at 3 ug/kg, inhaled daily for 28 days by hematoxylin and eosin staining-based assay; type: functional
Rattus norvegicus [22] = test: Inhibition of cardiac fibrosis in MCT-induced Sprague-Dawley rat pulmonary arterial hypertension model at 3 ug/kg, inhaled daily for 28 days by picro-sirius red staining-based assay; type: functional
Rattus norvegicus [23] = test: Pulmonary vasodilatory effect in MCT-induced Sprague-Dawley rat pulmonary arterial hypertension model assessed as mean pulmonary artery pressure at 0.78 ug/kg, inhaled daily for 28 days by polygraph method (reference value: 30.63 +/- 1.16 mmHg); type: functional
Rattus norvegicus [24] = test: Pulmonary vasodilatory effect in MCT-induced Sprague-Dawley rat pulmonary arterial hypertension model assessed as right ventricular systolic pressure at 0.78 ug/kg, inhaled daily for 28 days by polygraph method (reference value: 56.09 +/- 3.24 mmHg); type: functional
Rattus norvegicus [25] = test: Pulmonary vasodilatory effect in MCT-induced Sprague-Dawley rat pulmonary arterial hypertension model assessed as weight ratio of right ventricle to left ventricle and septum at 0.78 ug/kg, inhaled daily for 28 days (reference value: 0.4796 +/- 0.030); type: functional
Rattus norvegicus [26] = test: Pulmonary vasodilatory effect in MCT-induced Sprague-Dawley rat pulmonary arterial hypertension model assessed as mean pulmonary artery pressure at 0.78 ug/kg, inhaled daily for 28 days co-administered with CDDO-Me by polygraph method (reference value: 30.63 +/- 1.16 mmHg); type: functional
Rattus norvegicus [27] = test: Pulmonary vasodilatory effect in MCT-induced Sprague-Dawley rat pulmonary arterial hypertension model assessed as right ventricular systolic pressure at 0.78 ug/kg, inhaled daily for 28 days co-administered with CDDO-Me by polygraph method (reference value: 56.09 +/- 3.24 mmHg); type: functional
Rattus norvegicus [28] = test: Pulmonary vasodilatory effect in MCT-induced Sprague-Dawley rat pulmonary arterial hypertension model assessed as weight ratio of right ventricle to left ventricle and septum at 0.78 ug/kg, inhaled daily for 28 days co-administered with CDDO-Me (reference value: 0.4796 +/- 0.030); type: functional
[29] = (§1) Drug uptake in Sprague-Dawley rat lung at 1 mg/ml administered in trachea after 180 mins by LC-MS/MS analysis; type: ADME; details: Sprague-Dawley, lung, inhaled or intranasal, 1 mg/ml, read-out: Drug uptake
Lung [30] = test: as §1; type: ADME; details: in vivo, inhaled_or_intranasal, 3 h, BLD = below limit of detection
[31] = Drug uptake in Sprague-Dawley rat lung at 1 mg/ml administered in trachea after 360 mins by LC-MS/MS analysis; type: ADME, tissue-based; details: inhaled or intranasal, read-out: Drug uptake
Lung [32] = test: Drug level in Sprague-Dawley rat lung treated with CDDO-NO at 1 mg/ml administered in trachea after 90 to 720 mins by LC-MS/MS analysis; type: ADME, tissue-based; details: in vivo, inhaled_or_intranasal
Plasma [33] = test: Drug level in Sprague-Dawley rat plasma treated with CDDO-NO at 1 mg/ml administered in trachea after 15 to 720 mins by LC-MS/MS analysis; type: ADME, cell-free; details: inhaled_or_intranasal
Rattus norvegicus [34] = test: Pulmonary vasodilatory effect in MCT-induced Sprague-Dawley rat pulmonary arterial hypertension model assessed as mean pulmonary artery pressure at 2.1 ug/kg, inhaled daily for 28 days by polygraph method (reference value: 30.63 +/- 1.16 mmHg); type: functional
Rattus norvegicus [35] = test: Pulmonary vasodilatory effect in MCT-induced Sprague-Dawley rat pulmonary arterial hypertension model assessed as right ventricular systolic pressure at 2.1 ug/kg, inhaled daily for 28 days by polygraph method (reference value: 56.09 +/- 3.24 mmHg); type: functional
Rattus norvegicus [36] = test: Pulmonary vasodilatory effect in MCT-induced Sprague-Dawley rat pulmonary arterial hypertension model assessed as weight ratio of right ventricle to left ventricle and septum at 2.1 ug/kg, inhaled daily for 28 days (reference value: 0.4796 +/- 0.030); type: functional
Rattus norvegicus [37] = test: Pulmonary vasodilatory effect in MCT-induced Sprague-Dawley rat pulmonary arterial hypertension model assessed as mean pulmonary artery pressure at 2.1 ug/kg, inhaled daily for 28 days co-administered with ISMN by polygraph method (reference value: 30.63 +/- 1.16 mmHg); type: functional
Rattus norvegicus [38] = test: Pulmonary vasodilatory effect in MCT-induced Sprague-Dawley rat pulmonary arterial hypertension model assessed as right ventricular systolic pressure at 2.1 ug/kg, inhaled daily for 28 days co-administered with ISMN by polygraph method (reference value: 56.09 +/- 3.24 mmHg); type: functional
Rattus norvegicus [39] = test: Pulmonary vasodilatory effect in MCT-induced Sprague-Dawley rat pulmonary arterial hypertension model assessed as weight ratio of right ventricle to left ventricle and septum at 2.1 ug/kg, inhaled daily for 28 days co-administered with ISMN (reference value: 0.4796 +/- 0.030); type: functional

COC(=O)[C@]12CCC(C)(C)C[C@H]1[C@H]1C(=O)C=C3[C@@]4(C)C(O[C@@H]5CO[C@H]6[C@@H]5OC[C@H]6O[N+](=O)[O-])C(C#N)=C(OC(C)=O)C(C)(C)[C@@H]4CC[C@@]3(C)[C@]1(C)CC2 (stereo not given in full)
inhibition (Rattus norvegicus [1]): Active | concentration at 1 h [2]: 243 ng/mL | Drug metabolism (Lung [3]): 78.5 ng/mL | Drug metabolism (Lung [4]): 15.9 ng/mL | Drug metabolism (Plasma [5]): Metabolite_Detected | Activity [6]: Active | Activity (Rattus norvegicus [7]): 20.72 mmHg | Activity (Rattus norvegicus [8]): 44.75 mmHg | Ratio (Rattus norvegicus [9]): 0.3656 | Activity (Rattus norvegicus [10]): Active | Activity (Rattus norvegicus [11]): Active | inhibition (Rattus norvegicus [12]): Active | inhibition (Rattus norvegicus [13]): Active | inhibition (Rattus norvegicus [14]): Active | inhibition (Rattus norvegicus [15]): Active | inhibition (Rattus norvegicus [16]): Active | inhibition (Rattus norvegicus [17]): Active | inhibition (Rattus norvegicus [18]): Active | inhibition (Rattus norvegicus [19]): Active | inhibition (Rattus norvegicus [20]): Active | inhibition (Rattus norvegicus [21]): Active | inhibition (Rattus norvegicus [22]): Active

O=[N+]([O-])O[C@@H]1CO[C@H]2[C@@H]1OC[C@H]2O
Activity (Rattus norvegicus [23]): 25.11 mmHg | Activity (Rattus norvegicus [24]): 60.76 mmHg | Ratio (Rattus norvegicus [25]): 0.4844 | Activity (Rattus norvegicus [26]): 27.3 mmHg | Activity (Rattus norvegicus [27]): 60.12 mmHg | Ratio (Rattus norvegicus [28]): 0.4898

COC(=O)[C@]12CCC(C)(C)C[C@H]1[C@H]1C(=O)C=C3[C@@]4(C)C=C(C#N)C(=O)C(C)(C)[C@@H]4CC[C@@]3(C)[C@]1(C)CC2 [BARDOXOLONE METHYL]
concentration at 1 h [2]: 180 to 444 ng/mL | concentration at 3 h [29]: 44.8 ng/mL | Drug uptake (Lung [30]): Bld | concentration at 6 h [31]: 3.4 ng/mL | Drug metabolism (Lung [32]): Metabolite_Detected | Drug metabolism (Plasma [33]): Metabolite_Detected | Activity (Rattus norvegicus [34]): 26.29 mmHg | Activity (Rattus norvegicus [35]): 61.24 mmHg | Ratio (Rattus norvegicus [36]): 0.5123 | Activity (Rattus norvegicus [37]): 27.3 mmHg | Activity (Rattus norvegicus [38]): 60.12 mmHg | Ratio (Rattus norvegicus [39]): 0.4898
